From US8476064B2, “Inhibition assay method and device for detection of antibiotics” (Charm Sciences, Inc., priority 2006, dated 2013)

Assays:
B.st. spores [1] = experiment: Antibiotic detection test in spiked milk, borate/succinate culture of Example 6 (Table 4); type: cell-based, Bacillus (Geobacillus) Stearothermophilus; design: key to Color 1 / Color 2: Color result 1 and 2 is a negative result; Color result 1 and 2 is a negative result; 3 is a borderline result; 4 and 5 is a positive result; 4 and 5 is a positive result; conditions: for % Pos (Color 2) / Color 2: after 16 hours at room temperature; for % Pos (Color 1) / Color 1: immediately after test completion
Experimental: BCP/Borate/Succinate Solution was prepared by adding 3.8 grams of Borate and 6 grams Succinate to 100 mL of reverse osmosis/deionized water (RO/DI Water) in 125 mL flask. 50 milligrams of BCP was added to a 50 mL conical tube and 5 mL of Borate/Succinate solution was added to the 50 milligrams BCP and mixed.
To prepare media 5 grams glucose and 1 gram Mueller Hinton Broth was dissolved in 100 mL RO/DI Water. 1.2 mL of a 0.01 mg/mL solution of trimethoprim in RO/DI Water was prepared and added to the media. A 20 mL of BCP/Borate/Succinate was added to the media and the media was sterile filtered through a 0.45 micron filter and then cooled to 4 degrees C.
Agar was prepared by combining 0.3 grams Difco Bacto-Agar (Item #0140-01), 0.225 NaCl and 17.485 RO/DI Water. The mixture was heated to 95° C. and then removed from the heat and allowed to cool to 75° C. Next 6 mL of media (prepared as described above with BCP/Tris) was added to the agar and mixed for 5 minutes. The mixture was cooled to 57° C. and 1 mL spore solution (concentration of 1 billion cfu/mL) was added and mixed together for 5 minutes. 0.200 mL was dispensed into the bottom of each of the vials.
In test operation 200 microliters of various milk sample, spiked with known concentrations of antibiotics, were pipetted into test vials and incubated for the prescribed time (in this test 2 hours 10 minutes) and prescribed temperature (64 degrees C.+/−2 degrees C.). Incubation was in the Charm I Inctronic incubator. Results were recorded immediately after test completion (Color 1) and after being left at room temperature for 16 hours (Color 2). Results listed are in parts per billion (ppb). 4 samples were run at each concentrations except for raw negative milk (16 samples) and 3 ppb pen G (2 samples) and amoxicillin (2 samples). Abbreviations are penicillin G (PenG); sulfamethazine (SMZ); sulfadimethoxine (SDM); tylosin (TY); gentamicin (G); oxytetracycline (OT); pirlimycin (Pirl); amoxicillin (Amox); ampicillin (Amp); cloxacillin (Clox); ceftiofur sodium (Ceft); cephaprin (Ceph); tilmicosin (Til); sulfadoxine (SDN); neomycin (Neo). Color result 1 and 2 is a negative result, 3 is a borderline result and 4 and 5 is a positive result.

B.st. spores [2] = experiment: Antibiotic detection test in spiked milk, Trizma/succinate culture of Example 7 (Table 5); type: cell-based, Bacillus (Geobacillus) Stearothermophilus; conditions: for 16 hr Result / % Pos (16 hr Result): 16 hours later; for % Pos (Result) / Result: immediately after test completion
Experimental: A Trizma/Succinate solution was prepared by adding 2.5 grams Trizma Base and 6 grams Succinate to 100 mL of reverse osmosis/deionized water (RO/DI Water) in a 125 mL flask. 40 milligrams of BCP (see example 1 for BCP preparation) was then added to a 50 mL conical tube and 25 mL of the Trizma/Succinate solution was added to the 40 milligrams BCP and mixed.
The media was prepared by dissolving 5 grams glucose and 1 gram Mueller Hinton Broth in 100 mL RO/DI Water. 1.2 mL of a 0.01 mg/mL solution of trimethoprim in RO/DI water was added to the media. 20 mL of the BCP/Trizma/Succinate preparation was added to the media and the media was sterile filtered through a 0.45 micron filter and cooled to 4 degrees C.
0.3 grams Difco Bacto-Agar (Item #0140-01), 0.225 NaCl and 17 mL of RO/DI water was combined and mixed and heated the mixture to 95° C. The mixture was removed from the heat and allowed it to cool to 75° C. and then 6 mL media (with BCP/Tris) was added and mixed for 5 minutes. The mixture was cooled to 57° C. and 2 mL spore (concentration of 1 billion cfu/mL) was added and mixed for 5 minutes. 0.200 mL was dispensed into the bottom of each vial.
In test operation 200 microliters of various milk samples, spiked with known concentrations of antibiotics, were pipetted into vials and incubated for the prescribed time (in this test 2 hours 30 minutes) and prescribed temperature (64 degrees C.+/−2 degrees C.). Results were recorded immediately after test completion and 16 hours later. Incubation was in various Charm Inctronic I incubators. Concentrations listed are in parts per billion (ppb). 4 samples were run at each concentration except 16 negative samples were run and 2 samples each for 3 ppb pen G and amoxicillin. Abbreviations are pencillin G (PenG); sulfamethazine (SMZ); sulfadimethoxine (SDM); tylosin (TY); gentamicin (G); oxytetracycline (OT); pirlimycin (Pirl); amoxicillin (Amox); ampicillin (Amp); cloxacillin (Clox); ceftiofur sodium (Ceft); cephaprin (Ceph); tilmicosin (Til); sulfadoxine (SDN); neomycin (Neo).

Cc1onc(-c2ccccc2Cl)c1C(=O)N[C@@H]1C(=O)N2[C@@H]1SC(C)(C)[C@@H]2C(=O)O [Clox, cloxacillin]
% Pos (Color 2) (B.st. spores [1]; milk spiked at 30 ppb): 100%
Color 2 (B.st. spores [1]; milk spiked at 30 ppb): 5
% Pos (Color 1) (B.st. spores [1]; milk spiked at 30 ppb): 100%
Color 1 (B.st. spores [1]; milk spiked at 30 ppb): 4
% Pos (Color 2) (B.st. spores [1]; milk spiked at 50 ppb): 100%
Color 2 (B.st. spores [1]; milk spiked at 50 ppb): 5
% Pos (Color 1) (B.st. spores [1]; milk spiked at 50 ppb): 100%
Color 1 (B.st. spores [1]; milk spiked at 50 ppb): 5
16 hr Result (B.st. spores [2]; milk spiked at 30 ppb): Pos
% Pos (16 hr Result) (B.st. spores [2]; milk spiked at 30 ppb): 100%
% Pos (Result) (B.st. spores [2]; milk spiked at 30 ppb): 100%
Result (B.st. spores [2]; milk spiked at 30 ppb): Pos
16 hr Result (B.st. spores [2]; milk spiked at 50 ppb): Pos
% Pos (16 hr Result) (B.st. spores [2]; milk spiked at 50 ppb): 100%
% Pos (Result) (B.st. spores [2]; milk spiked at 50 ppb): 100%
Result (B.st. spores [2]; milk spiked at 50 ppb): Pos

NC[C@@H]1O[C@H](O[C@H]2[C@@H](O)[C@H](O[C@@H]3[C@@H](O)[C@H](N)C[C@H](N)[C@H]3O[C@H]3O[C@H](CN)[C@@H](O)[C@H](O)[C@H]3N)O[C@@H]2CO)[C@H](N)[C@@H](O)[C@@H]1O [Neo, neomycin]
% Pos (Color 2) (B.st. spores [1]; milk spiked at 750 ppb): 100%
Color 2 (B.st. spores [1]; milk spiked at 750 ppb): 5
% Pos (Color 1) (B.st. spores [1]; milk spiked at 750 ppb): 100%
Color 1 (B.st. spores [1]; milk spiked at 750 ppb): 5
16 hr Result (B.st. spores [2]; milk spiked at 750 ppb): Pos
% Pos (16 hr Result) (B.st. spores [2]; milk spiked at 750 ppb): 100%
% Pos (Result) (B.st. spores [2]; milk spiked at 750 ppb): 100%
Result (B.st. spores [2]; milk spiked at 750 ppb): Pos

CC[C@@H]1CCN[C@H](C(=O)N[C@@H]([C@H]2O[C@H](SC)[C@H](O)[C@@H](O)[C@H]2O)[C@H](C)Cl)C1 [Pirl, pirlimycin]
% Pos (Color 2) (B.st. spores [1]; milk spiked at 100 ppb): 100%
Color 2 (B.st. spores [1]; milk spiked at 100 ppb): 4
% Pos (Color 1) (B.st. spores [1]; milk spiked at 100 ppb): 100%
Color 1 (B.st. spores [1]; milk spiked at 100 ppb): 4
% Pos (Color 2) (B.st. spores [1]; milk spiked at 200 ppb): 100%
Color 2 (B.st. spores [1]; milk spiked at 200 ppb): 5
% Pos (Color 1) (B.st. spores [1]; milk spiked at 200 ppb): 100%
Color 1 (B.st. spores [1]; milk spiked at 200 ppb): 5
16 hr Result (B.st. spores [2]; milk spiked at 100 ppb): Pos
% Pos (16 hr Result) (B.st. spores [2]; milk spiked at 100 ppb): 100%
% Pos (Result) (B.st. spores [2]; milk spiked at 100 ppb): 100%
Result (B.st. spores [2]; milk spiked at 100 ppb): Pos
16 hr Result (B.st. spores [2]; milk spiked at 200 ppb): Pos
% Pos (16 hr Result) (B.st. spores [2]; milk spiked at 200 ppb): 100%
% Pos (Result) (B.st. spores [2]; milk spiked at 200 ppb): 100%
Result (B.st. spores [2]; milk spiked at 200 ppb): Pos

COc1ncnc(NS(=O)(=O)c2ccc(N)cc2)c1OC [SDN, sulfadoxine]
% Pos (Color 2) (B.st. spores [1]; milk spiked at 100 ppb): 100%
Color 2 (B.st. spores [1]; milk spiked at 100 ppb): 4
% Pos (Color 1) (B.st. spores [1]; milk spiked at 100 ppb): 100%
Color 1 (B.st. spores [1]; milk spiked at 100 ppb): 5
16 hr Result (B.st. spores [2]; milk spiked at 100 ppb): Pos
% Pos (16 hr Result) (B.st. spores [2]; milk spiked at 100 ppb): 100%
% Pos (Result) (B.st. spores [2]; milk spiked at 100 ppb): 100%
Result (B.st. spores [2]; milk spiked at 100 ppb): Pos

CC[C@H]1OC(=O)C[C@@H](O)[C@H](C)[C@@H](O[C@@H]2O[C@H](C)[C@@H](O)[C@H](N(C)C)[C@H]2O)[C@@H](CCN2C[C@H](C)C[C@H](C)C2)C[C@@H](C)C(=O)/C=C/C(C)=C/[C@@H]1CO[C@@H]1O[C@H](C)[C@@H](O)[C@@H](OC)[C@H]1OC [Til, tilmicosin]
% Pos (Color 2) (B.st. spores [1]; milk spiked at 80 ppb): 100%
Color 2 (B.st. spores [1]; milk spiked at 80 ppb): 5
% Pos (Color 1) (B.st. spores [1]; milk spiked at 80 ppb): 100%
Color 1 (B.st. spores [1]; milk spiked at 80 ppb): 5
16 hr Result (B.st. spores [2]; milk spiked at 80 ppb): Pos
% Pos (16 hr Result) (B.st. spores [2]; milk spiked at 80 ppb): 100%
% Pos (Result) (B.st. spores [2]; milk spiked at 80 ppb): 100%
Result (B.st. spores [2]; milk spiked at 80 ppb): Pos
